From patent US20220175768A1, “FGFR TYROSINE KINASE INHIBITORS FOR THE TREATMENT OF UROTHELIAL CARCINOMA” (Janssen Pharmaceutica NV, priority 2019, published 2022)
Where two headings read alike, the source gives them in different places.

[1] = 8 mg continuous, selected regimen 3 (n = 99)
[2] = 8 mg continuous, selected regimen 3 (n = 99), Table 14
[3] = 10 mg intermittent, regimen 1 (n = 33)

Procedure: Study treatment was administered on 28-day cycles. Prior to interim analysis 1, there were 2 treatment regimens. Patients were randomized 1:1 to 28-day cycles to the following 2 regimens until a regimen was selected for further study: Regimen 1 (10 mg once daily intermittent (7 days on/7 days); Regimen 2 (6 mg once daily continuous). Randomization was stratified according to performance status (0 to 1 vs. 2), hemoglobin value (<10 vs. ≥10 g per dl), FGFR alteration type (mutation vs. fusion), prior treatment status (chemotherapy-resistant vs. chemotherapy naïve), and disease distribution (presence or absence of visceral [liver, lung, bone] metastases). Starting dose selection was based on phase 1 efficacy and tolerability.
Thus, after interim analysis, this became a single-arm study. […] Treatment continued until disease progression or unacceptable adverse event(s) per investigator.
All objective responses required confirmation by an additional investigator assessment within 4 to 6 weeks of first assessment. Disease evaluations for regimen 3 were also performed by an independent radiographic review committee. […] Safety was evaluated based on clinical laboratory tests, physical exams, electrocardiograms, and ophthalmology examinations. Adverse events and abnormalities were assessed by investigator and graded per NCI CTCAE v.4.0
Prophylactic measures were taken to minimize risk of common adverse events related to FGFR inhibition. To reduce risk of hyperphosphatemia, a low-phosphate diet was recommended for all patients (600 to 800 mg of dietary phosphate intake per day). To reduce the risk of skin effects, the application of alcohol-free emollient moisturizing cream and avoidance of unnecessary exposure to sunlight, soap, perfumed products, and hot baths was recommended. Patients were asked to keep their fingers and toes clean and nails trimmed to reduce risk of nail effects.
Additional ophthalmology examinations were performed if clinically indicated.

Compound: COc1cc(OC)cc(N(CCNC(C)C)c2ccc3ncc(-c4cnn(C)c4)nc3c2)c1 [erdafitinib, N-(3,5-dimethoxy-phenyl)-N′-(1-methylethyl)-N-[3-(1-methyl-1H-pyrazol-4-yl)quinoxalin-6-yl]ethane-1,2-diamine]
- Patients with Hyperphosphatemia, Grade ≥3 [1]: 2 (2) no. (%)
- Patients with Hypomagnesemia, Any grade [1]: 10 (10) no. (%)
- Patients with Hypomagnesemia, Grade 1 [1]: 9 (9) no. (%)
- Patients with Hypomagnesemia, Grade 2 [1]: 1 (1) no. (%)
- Patients with Hypomagnesemia, Grade ≥3 [1]: 0 no. (%)
- Patients with Hyponatremia, Any grade [1]: 12 (12) no. (%)
- Patients with Hyponatremia, Grade 1 [1]: 1 (1) no. (%)
- Patients with Hyponatremia, Grade 2 [1]: 0 no. (%)
- Patients with Hyponatremia, Grade ≥3 [1]: 11 (11) no. (%)
- Patients with Insomnia, Any grade [1]: 7 (7) no. (%)
- Patients with Insomnia, Grade 1 [1]: 4 (4) no. (%)
- Patients with Insomnia, Grade 2 [1]: 3 (3) no. (%)
- Patients with Insomnia, Grade ≥3 [1]: 0 no. (%)
- Patients with Lacrimation increased, Any grade [1]: 11 (11) no. (%)
- Patients with Lacrimation increased, Grade 1 [1]: 8 (8) no. (%)
- Patients with Lacrimation increased, Grade 2 [1]: 3 (3) no. (%)
- Patients with Lacrimation increased, Grade ≥3 [1]: 0 no. (%)
- Patients with Nail dystrophy, Any grade [1]: 16 (16) no. (%)
- Patients with Nail dystrophy, Grade 1 [1]: 5 (5) no. (%)
- Patients with Nail dystrophy, Grade 2 [1]: 5 (5) no. (%)
- Patients with Nail dystrophy, Grade ≥3 [1]: 6 (6) no. (%)
- Patients with Nausea, Any grade [1]: 20 (20) no. (%)
- Patients with Nausea, Grade 1 [1]: 13 (13) no. (%)
- Patients with Nausea, Grade 2 [1]: 6 (6) no. (%)
- Patients with Nausea, Grade ≥3 [1]: 1 (1) no. (%)
- Patients with Onycholysis, Any grade [1]: 18 (18) no. (%)
- Patients with Onycholysis, Grade 1 [1]: 6 (6) no. (%)
- Patients with Onycholysis, Grade 2 [1]: 10 (10) no. (%)
- Patients with Onycholysis, Grade ≥3 [1]: 2 (2) no. (%)
- Patients with Onychomadesis, Any grade [1]: 7 (7) no. (%)
- Patients with Onychomadesis, Grade 1 [1]: 2 (2) no. (%)
- Patients with Onychomadesis, Grade 2 [1]: 5 (5) no. (%)
- Patients with Onychomadesis, Grade ≥3 [1]: 0 no. (%)
- Patients with Oropharyngeal pain, Any grade [1]: 10 (10) no. (%)
- Patients with Oropharyngeal pain, Grade 1 [1]: 8 (8) no. (%)
- Patients with Oropharyngeal pain, Grade 2 [1]: 1 (1) no. (%)
- Patients with Oropharyngeal pain, Grade ≥3 [1]: 1 (1) no. (%)
- Patients with Pain in extremity, Any grade [1]: 12 (12) no. (%)
- Patients with Pain in extremity, Grade 1 [1]: 10 (10) no. (%)
- Patients with Pain in extremity, Grade 2 [1]: 2 (2) no. (%)
- Patients with Pain in extremity, Grade ≥3 [1]: 0 no. (%)
- Patients with Paronychia, Any grade [1]: 17 (17) no. (%)
- Patients with Paronychia, Grade 1 [1]: 3 (3) no. (%)
- Patients with Paronychia, Grade 2 [1]: 11 (11) no. (%)
- Patients with Paronychia, Grade ≥3 [1]: 3 (3) no. (%)
- Patients with Peripheral edema, Any grade [1]: 9 (9) no. (%)
- Patients with Peripheral edema, Grade 1 [1]: 5 (5) no. (%)
- Patients with Peripheral edema, Grade 2 [1]: 3 (3) no. (%)
- Patients with Peripheral edema, Grade ≥3 [1]: 1 (1) no. (%)
- Patients with Pyrexia, Any grade [1]: 13 (13) no. (%)
- Patients with Pyrexia, Grade 1 [1]: 8 (8) no. (%)
- Patients with Pyrexia, Grade 2 [1]: 5 (5) no. (%)
- Patients with Pyrexia, Grade ≥3 [1]: 0 no. (%)
- Patients with Retinal detachment, Any grade [1]: 5 (5) no. (%)
- Patients with Retinal detachment, Grade 1 [1]: 3 (3) no. (%)
- Patients with Retinal detachment, Grade 2 [1]: 2 (2) no. (%)
- Patients with Retinal detachment, Grade ≥3 [1]: 0 no. (%)
- Patients with Stomatitis, Any grade [1]: 57 (58) no. (%)
- Patients with Stomatitis, Grade 1 [1]: 21 (21) no. (%)
- Patients with Stomatitis, Grade 2 [1]: 26 (26) no. (%)
- Patients with Stomatitis, Grade ≥3 [1]: 10 (10) no. (%)
- Patients with Urinary tract infection, Any grade [1]: 16 (16) no. (%)
- Patients with Urinary tract infection, Grade 1 [1]: 0 no. (%)
- Patients with Urinary tract infection, Grade 2 [1]: 11 (11) no. (%)
- Patients with Urinary tract infection, Grade ≥3 [1]: 5 (5) no. (%)
- Patients with Vision blurred, Any grade [1]: 17 (17) no. (%)
- Patients with Vision blurred, Grade 1 [1]: 10 (10) no. (%)
- Patients with Vision blurred, Grade 2 [1]: 7 (7) no. (%)
- Patients with Vision blurred, Grade ≥3 [1]: 0 no. (%)
- Patients with Vomiting, Any grade [1]: 13 (13) no. (%)
- Patients with Vomiting, Grade 1 [1]: 10 (10) no. (%)
- Patients with Vomiting, Grade 2 [1]: 1 (1) no. (%)
- Patients with Vomiting, Grade ≥3 [1]: 2 (2) no. (%)
- Patients with Weight decreased, Any grade [1]: 15 (15) no. (%)
- Patients with Weight decreased, Grade 1 [1]: 7 (7) no. (%)
- Patients with Weight decreased, Grade 2 [1]: 8 (8) no. (%)
- Patients with Weight decreased, Grade ≥3 [1]: 0 no. (%)
- Patients with Alopecia, Grade ≥3 [2]: 0 no.
- Patients with Decreased appetite, Grade ≥3 [2]: 0 no.
- Patients with Dry mouth, Grade ≥3 [2]: 0 no.
- Patients with Dry skin, Grade ≥3 [2]: 0 no.
- Patients with Urinary tract infection, Grade 1 [2]: 0 no.
- Patients with Vision blurred, Grade ≥3 [2]: 0 no.
- Patients with some type of eye disorder, regardless of relation to treatment (8 mg per day continuous): 63%
- Patients with grade ≥3 treatment-emergent adverse events (8 mg per day continuous group uptitrated to 9 mg per day): 68%
- Patients with Abdominal pain, Any grade [3]: 5 (15) no. (%)
- Patients with Abdominal pain, Grade 1 [3]: 2 (6) no. (%)
- Patients with Abdominal pain, Grade 2 [3]: 2 (6) no. (%)
- Patients with Abdominal pain, Grade ≥3 [3]: 1 (3) no. (%)
- Patients with Alanine aminotransferase increased, Any grade [3]: 1 (3) no. (%)
- Patients with Alanine aminotransferase increased, Grade 1 [3]: 0 no. (%)
- Patients with Alanine aminotransferase increased, Grade 2 [3]: 1 (3) no. (%)
- Patients with Alanine aminotransferase increased, Grade ≥3 [3]: 0 no. (%)
- Patients with Alopecia, Any grade [3]: 4 (12) no. (%)
- Patients with Alopecia, Grade 1 [3]: 2 (6) no. (%)
- Patients with Alopecia, Grade 2 [3]: 2 (6) no. (%)
- Patients with Alopecia, Grade ≥3 [3]: 0 no. (%)
- Patients with Anemia, Any grade [3]: 8 (24) no. (%)
- Patients with Anemia, Grade 1 [3]: 1 (3) no. (%)
- Patients with Anemia, Grade 2 [3]: 1 (3) no. (%)
- Patients with Anemia, Grade ≥3 [3]: 6 (18) no. (%)
- Patients with Arthralgia, Any grade [3]: 7 (21) no. (%)
- Patients with Arthralgia, Grade 1 [3]: 3 (9) no. (%)
- Patients with Arthralgia, Grade 2 [3]: 2 (6) no. (%)
- Patients with Arthralgia, Grade ≥3 [3]: 2 (6) no. (%)
- Patients with Aspartate aminotransferase increased, Any grade [3]: 2 (6) no. (%)
- Patients with Aspartate aminotransferase increased, Grade 1 [3]: 2 (6) no. (%)
- Patients with Aspartate aminotransferase increased, Grade 2 [3]: 0 no. (%)
- Patients with Aspartate aminotransferase increased, Grade ≥3 [3]: 0 no. (%)
- Patients with Asthenia, Any grade [3]: 10 (30) no. (%)
- Patients with Asthenia, Grade 1 [3]: 5 (15) no. (%)
- Patients with Asthenia, Grade 2 [3]: 3 (9) no. (%)
- Patients with Asthenia, Grade ≥3 [3]: 2 (6) no. (%)
- Patients with Back pain, Any grade [3]: 5 (15) no. (%)
- Patients with Back pain, Grade 1 [3]: 1 (3) no. (%)
- Patients with Back pain, Grade 2 [3]: 1 (3) no. (%)
- Patients with Back pain, Grade ≥3 [3]: 3 (9) no. (%)
- Patients with Blood creatinine increased, Any grade [3]: 4 (12) no. (%)
- Patients with Blood creatinine increased, Grade 1 [3]: 3 (9) no. (%)
- Patients with Blood creatinine increased, Grade 2 [3]: 1 (3) no. (%)
- Patients with Blood creatinine increased, Grade ≥3 [3]: 0 no. (%)
- Patients with Conjunctivitis, Any grade [3]: 4 (12) no. (%)
- Patients with Conjunctivitis, Grade 1 [3]: 3 (9) no. (%)
- Patients with Conjunctivitis, Grade 2 [3]: 1 (3) no. (%)
- Patients with Conjunctivitis, Grade ≥3 [3]: 0 no. (%)
- Patients with Constipation, Any grade [3]: 14 (42) no. (%)
- Patients with Constipation, Grade 1 [3]: 8 (24) no. (%)
- Patients with Constipation, Grade 2 [3]: 6 (18) no. (%)
- Patients with Constipation, Grade ≥3 [3]: 0 no. (%)
- Patients with Decreased appetite, Any grade [3]: 11 (33) no. (%)
- Patients with Decreased appetite, Grade 1 [3]: 4 (12) no. (%)
- Patients with Decreased appetite, Grade 2 [3]: 6 (18) no. (%)
- Patients with Decreased appetite, Grade ≥3 [3]: 1 (3) no. (%)
- Patients with Diarrhea, Any grade [3]: 14 (42) no. (%)
- Patients with Diarrhea, Grade 1 [3]: 7 (21) no. (%)
- Patients with Diarrhea, Grade 2 [3]: 6 (18) no. (%)
- Patients with Diarrhea, Grade ≥3 [3]: 1 (3) no. (%)
- Patients with Dry eye, Any grade [3]: 3 (9) no. (%)
- Patients with Dry eye, Grade 1 [3]: 2 (6) no. (%)
- Patients with Dry eye, Grade 2 [3]: 1 (3) no. (%)
- Patients with Dry eye, Grade ≥3 [3]: 0 no. (%)
- Patients with Dry mouth, Any grade [3]: 16 (48) no. (%)
- Patients with Dry mouth, Grade 1 [3]: 15 (46) no. (%)
- Patients with Dry mouth, Grade 2 [3]: 1 (3) no. (%)
- Patients with Dry mouth, Grade ≥3 [3]: 0 no. (%)
- Patients with Dry skin, Any grade [3]: 9 (27) no. (%)
- Patients with Dry skin, Grade 1 [3]: 8 (24) no. (%)
- Patients with Dry skin, Grade 2 [3]: 1 (3) no. (%)
- Patients with Dry skin, Grade ≥3 [3]: 0 no. (%)
- Patients with Dysgeusia, Any grade [3]: 10 (30) no. (%)
- Patients with Dysgeusia, Grade 1 [3]: 7 (21) no. (%)
- Patients with Dysgeusia, Grade 2 [3]: 3 (9) no. (%)
- Patients with Dysgeusia, Grade ≥3 [3]: 0 no. (%)
- Patients with Dyspepsia, Any grade [3]: 3 (9) no. (%)
- Patients with Dyspepsia, Grade 1 [3]: 2 (6) no. (%)
- Patients with Dyspepsia, Grade 2 [3]: 1 (3) no. (%)
- Patients with Dyspepsia, Grade ≥3 [3]: 0 no. (%)
- Patients with Dyspnea, Any grade [3]: 8 (24) no. (%)
- Patients with Dyspnea, Grade 1 [3]: 3 (9) no. (%)
- Patients with Dyspnea, Grade 2 [3]: 2 (6) no. (%)
- Patients with Dyspnea, Grade ≥3 [3]: 3 (9) no. (%)
- Patients with Fatigue, Any grade [3]: 6 (18) no. (%)
- Patients with Fatigue, Grade 1 [3]: 4 (12) no. (%)
- Patients with Fatigue, Grade 2 [3]: 2 (6) no. (%)
- Patients with Fatigue, Grade ≥3 [3]: 0 no. (%)
- Patients with Hand-foot syndrome, Any grade [3]: 2 (6) no. (%)
- Patients with Hand-foot syndrome, Grade 1 [3]: 0 no. (%)
- Patients with Hand-foot syndrome, Grade 2 [3]: 2 (6) no. (%)
- Patients with Hand-foot syndrome, Grade ≥3 [3]: 0 no. (%)
- Patients with Hematuria, Any grade [3]: 3 (9) no. (%)
- Patients with Hematuria, Grade 1 [3]: 1 (3) no. (%)
- Patients with Hematuria, Grade 2 [3]: 2 (6) no. (%)
